We go through ten compounds from paper PMC6413183, “Regulatory Aspects of the Vacuolar CAT2 Arginine Transporter of S. lycopersicum: Role of Osmotic Pressure and Cations” (International Journal of Molecular Sciences, 2019).

The test system of experiment [1] is SlCAT2. Put plainly: [3H]Arg uptake in proteoliposomes reconstituted with recombinant SlCAT2. The settings on record: for effect of intraliposomal cations on [3H]Arg uptake: cation in internal compartment at about vacuolar concentration, K+ and Na+ versus no osmolytes, extent equal to isoosmolar sucrose (osmotic effect); for inhibition of [3H]Arg uptake by external divalent cations / inhibition of [3H]Arg uptake by external monovalent cations: extraliposomal cation at about cytosolic concentration; for inhibition of [3H]Arg uptake by external divalent cations: with respect to sucrose (1.2 mM) used as control of osmolality; for effect of external K+ salts on [3H]Arg uptake: salt in extraliposomal compartment, KCl compared to K-gluconate; for inhibition of [3H]Arg uptake by external monovalent cations: with respect to 40 mM sucrose used as control of osmolality. Type of experiment: biochemical, S. lycopersicum. Here is the method: The desalted SlCAT2 was reconstituted by removing the detergent from mixed micelles containing detergent, protein, and phospholipids by incubation with Amberlite XAD-4 in a batch-wise procedure, as previously described. The composition of the initial mixture used for reconstitution (except when differently indicated) was 400 µL of the purified protein (6 µg protein in 0.1% DDM), 80 µL of 10 % TX-100, 120 µL of 10% egg yolk phospholipids in the form of sonicated liposomes prepared as previously described, 15 mM ATP, and 10 mM Tris Hepes pH 7.5 (except where differently indicated) in a final volume of 700 µL. After vortexing, this mixture was incubated with 0.5 g Amberlite XAD-4 under rotatory stirring (1200 rpm) at 23 °C for 40 min in a batchwise procedure as previously pointed out.
Five-hundred-and-fifty microliters of proteoliposomes were passed through a Sephadex G-75 column (0.7 cm diameter × 15 cm height) preequilibrated with 10 mM Tris Hepes pH 7.5. From these columns, 550 µL of proteoliposomes were collected and divided into aliquots (samples) of 100 µL. Transport was started by adding 100 µM of [^3H]Arg to the proteoliposome samples. The pH gradient experiments were performed reconstituting protein in liposome with 10 mM Tris Hepes pH 5.5. After incubation with Amberlite XAD 4 resin, 550 µL of proteoliposomes were passed through a Sephadex G-75 column preequilibrated with 0.5 mM Tris Hepes pH 5.5.
The changes in external/internal osmolality were performed by adding in the extraliposomal/intraliposomal compartment appropriate concentrations of sucrose as indicated in the figure legend.
Transport reaction was stopped by adding 5 mM Pyridoxal Phosphate (PLP); according to the stop inhibitor method, the same inhibitor was added at time zero to control samples (blank). The initial rate was measured in 10 min, i.e., in the linear range of time courses as previously described. The PLP insensitive radioactivity associated with the control samples (blank) was less than 30% with respect to the PLP-sensitive arginine transport.
The experimental values were corrected by subtracting the respective controls. Specific activity was calculated and expressed as nmol/mg at a given time of measurement or as nmol/(mg × min) in the case of initial rate measurement. For calculation of initial rate, transport was measured in 10 min, i.e., within the initial linear part of the uptake. Grafit 5.0.13 software (Erithacus Software, West Sussex, UK) was used to derive IC50 values in inhibition assays and to measure transport rate by first-order rate equation and by a single exponential decay with offset.

The test system of experiment [2] is SlCAT2. Put plainly: [3H]Arg efflux from preloaded proteoliposomes reconstituted with SlCAT2. Type of experiment: biochemical, S. lycopersicum. The settings on record: 0.45 mM Mg2+ in the extraliposomal compartment; proteoliposomes preloaded with 100 µM [3H]Arg. The procedure:
Figure 9 Efflux from proteoliposomes reconstituted with SlCAT2. SlCAT2 was purified and reconstituted in proteoliposomes as described in Section 4.4. Arginine efflux was measured at the indicated time, as described in Section 4.5. Internal residual radioactivity was measured as percent with respect to control (time 0), in the absence (open circle) or in the presence (closed circle) of 0.45 mM Mg^2+ in the extraliposomal compartment. Data are plotted using the single exponential equation with offset as described in Section 4.5. Results are the means ± SD from three experiments.
For efflux measurements, proteoliposomes containing 15 mM ATP were preloaded by incubation with 100 µM [^3H]Arg (1 µCi/mL) for 90 min [64]. In both uptake and efflux, transport was stopped by passing 100 µL of each sample through a Sephadex G-75 column (0.6 cm diameter × 8 cm height) in order to separate the external from the internal radioactivity. Samples were eluted with 1 mL 50 mM NaCl and collected in 4 mL of scintillation mixture, vortexed and counted.
The experimental values were corrected by subtracting the respective controls. Specific activity was calculated and expressed as nmol/mg at a given time of measurement or as nmol/(mg × min) in the case of initial rate measurement. For calculation of initial rate, transport was measured in 10 min, i.e., within the initial linear part of the uptake. […]

The mark [3] stands for this setting: cation in extraliposomal compartment (NaCl, K-gluconate, NH4Cl, MgCl2), 100 μM [3H]Arg, 20 min, proteoliposomes containing 200 mM sucrose and 15 mM ATP, pH 7.5, read-out: IC50 for inhibition of [3H]Arg uptake by external cations.

Read-outs that look alike come from different tables or passages of the source.

As for `CC(C)CCC[C@@H](C)[C@H]1CC[C@H]2[C@@H]3CC=C4C[C@@H](OC(=O)CCC(=O)O)CC[C@]4(C)[C@H]3CC[C@]12C` [CHS, Cholesteryl hemisuccinate, reference compound], the “stimulation of [3H]Arg uptake by CHS in the proteoliposomal membrane” value in the experiment with SlCAT2 [1] (1 mg of CHS in 1 mL proteoliposomes, corresponding to 10% of total lipid composition, 20 min, pH 7.5) was “up to 30%”.
For `Nc1ncnc2c1ncn2[C@@H]1O[C@H](COP(=O)(O)OP(=O)([O-])OP(=O)([O-])O)[C@@H](O)[C@H]1O.[Na+].[Na+]` [ATP], in the experiment on SlCAT2 [1] (ATP (Na+)2 salt added externally, partially due to Na+ and osmolality, 200 mM sucrose and 15 mM ATP inside, pH 7.5, 20 min), the “effect of extraliposomal ATP on [3H]Arg uptake” value is listed as “inhibited”.
In general, IC50 refers to the concentration that gives 50% inhibition. Take `[Cl-].[Cl-].[Mg+2]` [Mg^2+]: the “inhibition of [3H]Arg uptake by intraliposomal Mg2+ in the absence of internal ATP” value with SlCAT2 [1] (Mg2+ in internal compartment, 200 mM sucrose, no intraliposomal ATP, 20 min) is given as “virtually disappeared”. Further, the IC50 with SlCAT2 [1] (Mg2+ in internal compartment, with 200 mM sucrose and 15 mM intraliposomal ATP, pH 7.5, 20 min, read-out: IC50 for inhibition of [3H]Arg uptake by intraliposomal Mg2+) turned out to be 23 ± 9.9 mM; in the experiment with SlCAT2 [1] (setting [3]), 0.42 ± 0.18 mM. In the experiment on SlCAT2 [1] (15 mM ATP, pH 7.5, 20 min), the “effect of intraliposomal cations on [3H]Arg uptake” value (shortened to “effect of intraliposomal cations”) is reported as “strong inhibitory effect”. In addition, the “inhibition of [3H]Arg uptake by external divalent cations” value in the experiment on SlCAT2 [1] (20 min, pH 7.5) is 33%. Moreover, in the experiment on SlCAT2 [2], the “effect of external Mg2+ on [3H]Arg efflux” value was “no, or only a slight, effect”.
On to `OC[C@H]1O[C@@](CO)(O[C@H]2O[C@H](CO)[C@@H](O)[C@H](O)[C@H]2O)[C@@H](O)[C@@H]1O` [sucrose], for which the “effect of 1.2 mM external sucrose on transport activity” value with SlCAT2 [1] (1.2 mM sucrose external, with respect to control without sucrose) was “no difference of activity”. Besides, the “effect of 40 mM external sucrose on transport activity” value with SlCAT2 [1] (40 mM sucrose external, with respect to the condition without sucrose) is on record as “caused a reduction of transport activity”. The “[3H]Arg uptake as percent of the control with external sucrose” value with SlCAT2 [1] (50 mM sucrose in external compartment, 200 mM sucrose and 15 mM ATP inside, pH 7.5, 10 min) was “about 45%”. In the experiment with SlCAT2 [1] (50 mM sucrose in external compartment, control without external sucrose 0.93 ± 0.2, 10 min, pH 7.5), the “transport rate of [3H]Arg uptake with external sucrose” value is 0.51 ± 0.18 nmol/mg/min. Besides, the “change of [3H]Arg uptake with intraliposomal sucrose” value in the experiment on SlCAT2 [1] (intraliposomal osmolality 50 to 175 mOsmol, plateau up to 225 mOsmol, 15 mM ATP, pH 7.5, 10 min) was “increased approximately three times”.
Consider `[Ca+2].[Cl-].[Cl-]` [Ca^2+], for which, in the experiment with SlCAT2 [1] (15 mM ATP, pH 7.5, 20 min), the “effect of intraliposomal cations” value is “did not exert any significant effect”. Besides, in the experiment on SlCAT2 [1] (20 min, pH 7.5), the “inhibition of [3H]Arg uptake by external divalent cations” value is “did not exert a significant effect”.
Take `O=C([O-])[C@H](O)[C@@H](O)[C@H](O)[C@H](O)CO.[K+]` [K-gluconate]: in the experiment with SlCAT2 [1] (20 min, pH 7.5), the “effect of external K+ salts on [3H]Arg uptake” value was “no difference between the two K^+ salts”.
Consider `Cl.N` [NH4^+], for which, in the experiment with SlCAT2 [1] (setting [3]), the IC50 came to 5.7 ± 1.49 mM. In addition, the “effect of intraliposomal cations” value with SlCAT2 [1] (15 mM ATP, pH 7.5, 20 min) was “did not exert any significant effect”. For the same compound, the “inhibition of [3H]Arg uptake by external monovalent cations” value in the experiment on SlCAT2 [1] (20 min, pH 7.5) was ~ 40%.
In the same order, the values of `[K+]` [K^+] are 11.3 ± 1.2 mM, “activation” and ~ 40%.
In the case of `[Cl-].[Na+]` [Na^+], in the experiment with SlCAT2 [1] (setting [3]), the IC50 turned out to be 10.9 ± 0.8 mM. Moreover, the “effect of intraliposomal cations” value in the experiment on SlCAT2 [1] (15 mM ATP, pH 7.5, 20 min) is “activation”. In addition, in the experiment with SlCAT2 [1] (20 min, pH 7.5), the “inhibition of [3H]Arg uptake by external monovalent cations” value is listed as ~ 40%.
With `[Cl-].[K+]` [KCl], the “effect of external K+ salts on [3H]Arg uptake” value with SlCAT2 [1] (20 min, pH 7.5) is “inhibited”.
